In patent publication US20190133933A1, “FORMULATIONS AND METHODS FOR REDUCTION OF INTRAOCULAR PRESSURE” (CLEARSIDE BIOMEDICAL, INC., priority 2016, published 2019):

Tested on: normotensive dogs
Experiment: Poststudy efficacy challenge: single topical ocular dose, IOP followed for 24 hours
Assay type: in vivo, female beagle dogs
Protocol: IOP was measured by using a TonoVet according to a study-specific procedure. IOP measurements consisted of three independent readings per eye per time point from each eye. Following approximately 4 weeks of washout, animals in both groups were administered latanoprost in the right eye and phosphate-buffered saline (PBS) in the left eye, and IOP measurements were followed for 24 hours. As applicable, the dosing solution was drawn up into a 1-mL luer-lock syringe using a standard 21-gauge, 1-inch needle. Bubbles were expressed and the standard needle was replaced by a 30-gauge microneedle 1100 μm in length. […] Following the injection, the needle was kept in the eye for approximately 10 seconds before being withdrawn. Upon withdrawal of the microneedle, a cotton-tipped applicator (CTA, dose wipe) was placed over the injection site for approximately 10 seconds. The right eye was dosed first and all post-dose times were based on the time of dosing of the second (left) eye.
Approximately 8 weeks after dose administration, all animals underwent a poststudy efficacy challenge. A positive displacement pipette was used to administer a single 35-μL dose of latanoprost to the right eye and phosphate-buffered saline (PBS) to the left eye. IOP was measured prior to dose administration (approximately −1 and 0 hours), and at 2, 4, 6, 8, and 24 hours following treatment. […]

CC(C)OC(=O)CCC/C=C\C[C@@H]1[C@@H](CC[C@@H](O)CCc2ccccc2)[C@H](O)C[C@@H]1O [Latanoprost]
effect on IOP (right eyes vs PBS left eyes kept at about baseline (FIGS. 13-16)): decreased the IOP | mean maximum effective decrease (Emax) in IOP values (single 35-μL topical ocular dose, right eye, Groups 1 and 2): 3-5 mm Hg
